Measured values as given in ChEMBL document CHEMBL1201862, “PubChem BioAssay data set” (2004).
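In this assay, cells in 96-well plates receive the compound at five concentrations for 48 hours. Endpoints are linearly interpolated between the surrounding concentrations. Here, GI50 denotes the concentration required for 50% inhibition of growth.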 Active and inactive are the calls of the source. No stated cut-off is given here; in the data, active = GI50 up to about 1.1 µM and inactive = higher.

Tests used:
Experiment in all cases: NCI tumour cell line growth inhibition, 48 h
OVCAR-8 = tested on: OVCAR-8
NCI-H522 = tested on: NCI-H522
OVCAR-4 = tested on: OVCAR-4
NCI-H23 = tested on: NCI-H23
SN12C = tested on: SN12C
RXF 393 = tested on: RXF 393
SNB-19 = tested on: SNB-19
SK-MEL-5 = tested on: SK-MEL-5
K562 = tested on: K562
M14 = tested on: M14
RPMI-8226 = tested on: RPMI-8226
NCI-H460 = tested on: NCI-H460
A549 = tested on: A549
LOX IMVI = tested on: LOX IMVI
SF-539 = tested on: SF-539
PC-3 = tested on: PC-3
ACHN = tested on: ACHN
EKVX = tested on: EKVX
SK-MEL-2 = tested on: SK-MEL-2
U-251 = tested on: U-251

| SMILES | GI50 (OVCAR-8) | GI50 (NCI-H522) | GI50 (OVCAR-4) | GI50 (NCI-H23) | GI50 (SN12C) | GI50 (RXF 393) | GI50 (SNB-19) | GI50 (SK-MEL-5) | GI50 (K562) | GI50 (M14) | GI50 (RPMI-8226) | GI50 (NCI-H460) | GI50 (A549) | GI50 (LOX IMVI) | GI50 (SF-539) | GI50 (PC-3) | GI50 (ACHN) | GI50 (EKVX) | GI50 (SK-MEL-2) | GI50 (U-251) |
| --- | --- | --- | --- | --- | --- | --- | --- | --- | --- | --- | --- | --- | --- | --- | --- | --- | --- | --- | --- | --- |
| C/C(=N/NC(=S)N(C)CCc1ccccn1)c1cnccn1 | < 0.01 µM (active) | < 0.01 µM (active) | < 0.01 µM (active) | < 0.01 µM (active) | < 0.01 µM (active) | 0.465 µM (active) | 0.437 µM (active) | 0.0256 µM (active) | < 0.01 µM (active) | < 0.01 µM (active) | < 0.01 µM (active) | 0.047 µM (active) | 0.078 µM (active) | < 0.01 µM (active) | 0.118 µM (active) | < 0.01 µM (active) | < 0.01 µM (active) | < 0.01 µM (active) | 4.78 µM (inactive) | < 0.01 µM (active) |
| CN(C)c1cc[n+](-c2nc([N-]C(=O)C(F)(F)F)nc3c2ncn3C2CC(O)C(CO)O2)cc1 (stereo not given) | > 100 µM (inactive) | > 100 µM (inactive) | > 100 µM (inactive) | > 100 µM (inactive) | > 100 µM (inactive) | > 100 µM (inactive) | > 100 µM (inactive) | > 100 µM (inactive) | > 100 µM (inactive) | > 100 µM (inactive) | > 100 µM (inactive) | > 100 µM (inactive) | > 100 µM (inactive) | > 100 µM (inactive) | > 100 µM (inactive) | > 100 µM (inactive) | > 100 µM (inactive) | > 100 µM (inactive) | > 100 µM (inactive) | > 100 µM (inactive) |
| O=c1c2ccccc2sc2ccccc12 | > 100 µM (inactive) | > 100 µM (inactive) | > 100 µM (inactive) | > 100 µM (inactive) | > 100 µM (inactive) | > 100 µM (inactive) | > 100 µM (inactive) | > 100 µM (inactive) | > 100 µM (inactive) | > 100 µM (inactive) | > 100 µM (inactive) | > 100 µM (inactive) | > 100 µM (inactive) | > 100 µM (inactive) | > 100 µM (inactive) | > 100 µM (inactive) | > 100 µM (inactive) | > 100 µM (inactive) | > 100 µM (inactive) | 14.9 µM (inactive) |
| Cc1cc(C)n(CN(Cn2nc(C)cc2C)c2ccccc2)n1 | 20.9 µM (inactive) | 23.2 µM (inactive) | 20.3 µM (inactive) | 18.1 µM (inactive) | 35.1 µM (inactive) | 19.3 µM (inactive) | 45.5 µM (inactive) | 20.4 µM (inactive) | 15.6 µM (inactive) | 16.3 µM (inactive) | 18.4 µM (inactive) | 35.1 µM (inactive) | 26.8 µM (inactive) | 1.5 µM (inactive) | 19.4 µM (inactive) | 27.8 µM (inactive) | 18.4 µM (inactive) | 24.7 µM (inactive) | 19 µM (inactive) | 17.8 µM (inactive) |
| CCOC(=O)NN(C(=O)OCC)C(=C(c1ccccc1)N1CCOCC1)N(NC(=O)OCC)C(=O)OCC | > 100 µM (inactive) | > 100 µM (inactive) | > 100 µM (inactive) | > 100 µM (inactive) | > 100 µM (inactive) | > 100 µM (inactive) | > 100 µM (inactive) | > 100 µM (inactive) | > 100 µM (inactive) | > 100 µM (inactive) | > 100 µM (inactive) | > 100 µM (inactive) | > 100 µM (inactive) | > 100 µM (inactive) | > 100 µM (inactive) | > 100 µM (inactive) | > 100 µM (inactive) | > 100 µM (inactive) | > 100 µM (inactive) | > 100 µM (inactive) |
| Cc1cccc(-c2cc(O)c3c(C)ccnc3n2)c1 | 0.718 µM (active) | 0.247 µM (active) | 8.41 µM (inactive) | 1.17 µM (inactive) | 0.564 µM (active) | 0.455 µM (active) | 0.447 µM (active) | 0.269 µM (active) | 0.139 µM (active) | 0.291 µM (active) | 0.468 µM (active) | 0.363 µM (active) | 0.71 µM (active) | 0.667 µM (active) | 0.456 µM (active) | 0.371 µM (active) | 0.601 µM (active) | 0.935 µM (active) | 0.321 µM (active) | 0.407 µM (active) |
| O=C(O)c1ccc2c(c1)CC1(C2)Cc2ccccc2C1=O (stereo not given) | > 100 µM (inactive) | > 100 µM (inactive) | > 100 µM (inactive) | > 100 µM (inactive) | > 100 µM (inactive) | > 100 µM (inactive) | > 100 µM (inactive) | > 100 µM (inactive) | > 100 µM (inactive) | 51.8 µM (inactive) | > 100 µM (inactive) | > 100 µM (inactive) | > 100 µM (inactive) | > 100 µM (inactive) | > 100 µM (inactive) | > 100 µM (inactive) | > 100 µM (inactive) | > 100 µM (inactive) | > 100 µM (inactive) | > 100 µM (inactive) |
| O=C1c2cccnc2-c2nccc3c2c1nc1ccc(Br)cc13 | 0.0662 µM (active) | 0.0528 µM (active) | 0.061 µM (active) | 0.0313 µM (active) | 0.0482 µM (active) | 0.0184 µM (active) | 0.136 µM (active) | 0.0247 µM (active) | 0.0238 µM (active) | 0.0243 µM (active) | 0.0347 µM (active) | 0.065 µM (active) | 0.188 µM (active) | 0.0221 µM (active) | 0.0601 µM (active) | 0.0426 µM (active) | 0.0263 µM (active) | 0.0948 µM (active) | 0.0726 µM (active) | 0.0363 µM (active) |
| O=C(c1cc2c(c3ccccc13)NC1(CCCCC1)N=C2C(F)(F)F)C(F)(F)F | 4.23 µM (inactive) | 2.65 µM (inactive) | 3.73 µM (inactive) | 3.83 µM (inactive) | 3.66 µM (inactive) | 3.66 µM (inactive) | 5.4 µM (inactive) | 5.74 µM (inactive) | 4.3 µM (inactive) | 6.17 µM (inactive) | 3.47 µM (inactive) | 3.27 µM (inactive) | 4.35 µM (inactive) | 3.33 µM (inactive) | 2.53 µM (inactive) | 3.68 µM (inactive) | 3.63 µM (inactive) | 4.82 µM (inactive) | 2.44 µM (inactive) | 3.78 µM (inactive) |
| CC(=O)Nc1ccc2c3c(cc(O)c2c1)N(C(=O)CCCCCCC(=O)Nc1ccc2c4c(cc(O)c2c1)N(C(=O)OC(C)(C)C)CC4CCl)CC3CCl (stereo not given) | 0.0973 µM (active) | 0.0387 µM (active) | 0.218 µM (active) | 0.0337 µM (active) | 0.13 µM (active) | 0.016 µM (active) | 0.046 µM (active) | 0.0217 µM (active) | 0.117 µM (active) | 0.0791 µM (active) | 0.0877 µM (active) | 0.0233 µM (active) | 0.195 µM (active) | 0.0391 µM (active) | 0.0637 µM (active) | 0.105 µM (active) | 0.0484 µM (active) | 0.304 µM (active) | 0.0423 µM (active) | 0.0205 µM (active) |
| Cc1c([N+](=O)[O-])oc2ccc3ccccc3c12 | 26.1 µM (inactive) | 3.86 µM (inactive) | 47.5 µM (inactive) | 11.2 µM (inactive) | 12.5 µM (inactive) | 21.4 µM (inactive) | > 100 µM (inactive) | 5.4 µM (inactive) | 18.9 µM (inactive) | 21.5 µM (inactive) | 9.33 µM (inactive) | 3.74 µM (inactive) | 66.1 µM (inactive) | 18.5 µM (inactive) | 28.2 µM (inactive) | 86.9 µM (inactive) | 16.2 µM (inactive) | 23 µM (inactive) | > 100 µM (inactive) | 65.6 µM (inactive) |
| CN(CCNC(=O)c1n[nH]c2c1ccc1ccccc12)CCNC(=O)c1n[nH]c2c1ccc1ccccc12 | 2.05 µM (inactive) | 1.95 µM (inactive) | 1.82 µM (inactive) | 1.96 µM (inactive) | 1.8 µM (inactive) | 1.94 µM (inactive) | 1.89 µM (inactive) | 1.71 µM (inactive) | 2.26 µM (inactive) | 1.82 µM (inactive) | 2.18 µM (inactive) | 2.3 µM (inactive) | 2.07 µM (inactive) | 1.78 µM (inactive) | 1.79 µM (inactive) | 2.49 µM (inactive) | 1.83 µM (inactive) | 1.63 µM (inactive) | 8.2 µM (inactive) | 1.93 µM (inactive) |
| CCCCCCC(=O)OC[n+]1ccc2c(C)c3[nH]c4ccc(OC)cc4c3c(C)c2c1 | 0.0752 µM (active) | 0.303 µM (active) | 0.679 µM (active) | 0.329 µM (active) | 0.0625 µM (active) | 0.247 µM (active) | 0.308 µM (active) | 1.16 µM (inactive) | 0.0611 µM (active) | 0.703 µM (active) | 0.0548 µM (active) | 0.0382 µM (active) | 0.238 µM (active) | 0.217 µM (active) | 0.299 µM (active) | 0.246 µM (active) | 0.0656 µM (active) | 0.8 µM (active) | 1.33 µM (inactive) | 0.282 µM (active) |
| CC(O)CC(O)(C(F)(F)F)C(F)(F)F (stereo not given) | > 10 µM (inactive) | > 10 µM (inactive) | > 10 µM (inactive) | > 10 µM (inactive) | > 10 µM (inactive) | > 10 µM (inactive) | > 10 µM (inactive) | > 10 µM (inactive) | > 10 µM (inactive) | > 10 µM (inactive) | > 10 µM (inactive) | > 10 µM (inactive) | > 10 µM (inactive) | > 10 µM (inactive) | > 10 µM (inactive) | > 10 µM (inactive) | > 10 µM (inactive) | > 10 µM (inactive) | > 10 µM (inactive) | > 10 µM (inactive) |
